Six molecules from US11225505B2, “Antimicrobial polymyxin derivative compounds” (MONASH UNIVERSITY, priority 2015, dated 2022) can be followed below.

≈ marks a conversion by molar mass, not a printed value. Where a SMILES comes first, the peptide text is derived from it. Bridges are numbered along the chain shown (N, C = ends). [ ]: non-standard residue; d: D form. The star is where a group is joined. X55 = O=C(c1ccc(-c2ccc(Cl)nc2)cc1)*; X37 = O=C(c1ccc(-c2ccc(Cl)cc2)s1)*; X45 = O=C(c1cc(C(F)(F)F)ccn1)*; X4 = O=C(c1cncc(C(F)(F)F)c1)*; X2 = O=C(c1cc(Cl)cc(Cl)n1)*; X36 = O=C(c1ncc(Br)cc1Br)*; Dab = NCC[C@H](N)C(=O)O; Abu = CC[C@H](N)C(=O)O; Dap = NC[C@H](N)C(=O)O Bounds are passed on as bounds.

Common to all, as to assay type: cell-based
For assay [1], the system named is Acinetobacter baumannii ATCC 17978. Particulars: ATCC 17978. In short, it runs like this: (§1)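 MIC; CLSI broth microdilution; cation-adjusted MH broth; test articles as TFA salts; polymyxin B control; polymyxin-susceptible isolates.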
The test system of assay [2] is Acinetobacter baumannii FADDI-AB034. Particulars: FADDI-AB034. In short, it runs like this: as §1
The subject of assay [3] is Enterobacter cloacae FADDI-EC001. Particulars: FADDI-EC001. In short, it runs like this: (§2)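 Gram-negative bacteria susceptible to polymyxin were exposed to lipopeptide trifluoroacetates in CAMHB, and growth inhibition was read as the MIC by the CLSI microdilution protocol.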
The subject of assay [4] is Enterobacter cloacae FADDI-EC003. The following applies: FADDI-EC003. Summed up: as §1
For assay [5], the system named is Enterobacter cloacae FADDI-EC006. Particulars: FADDI-EC006. Summed up: as §1
Assay [6] deals with Klebsiella pneumoniae FADDI-KP022. Particulars: FADDI-KP022. In short, it runs like this:
as §1

Assay [7] relates to Klebsiella pneumoniae FADDI-KP032. Particulars: FADDI-KP032. In short, it runs like this:
as §1

Assay [8] relates to Klebsiella pneumoniae Kp BM1. Particulars: Kp BM1. In short, it runs like this: as §2
Assay [9] concerns Pseudomonas aeruginosa ATCC 27853. Particulars: ATCC 27853. Summed up:
as §1

The test system of assay [10] is Pseudomonas aeruginosa FADDI-PA01. The following applies: FADDI-. Summed up: as §1
Assay [11] concerns Pseudomonas aeruginosa FADDI-PA022. The following applies: FADDI-PA022. In short, it runs like this:
as §1

Assay [12] has as its system Pseudomonas aeruginosa FADDI-PA038. The following applies: FADDI-PA038. Summed up:
as §1

Assay [13] concerns Acinetobacter baumannii FADDI-AB030. Kind of assay: microbe, parasite or virus in culture. Particulars: FADDI-AB030. Summed up:
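Broth microdilution MIC in cation-adjusted Mueller-Hinton broth per CLSI M100-S24; lipopeptides tested as TFA salts. FADDI-AB030 is a multidrug-resistant clinical isolate. Polymyxin B sulphate served as control.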

With `CC(C)C[C@H]1NC(=O)[C@H](CCN)NC(=O)[C@@H](NC(=O)[C@H](CN)NC(=O)[C@@H](NC(=O)[C@H](CCN)NC(=O)c2ccc(-c3ccc(Cl)nc3)cc2)[C@@H](C)O)CCNC(=O)[C@H]([C@@H](C)O)NC(=O)[C@H](CCN)NC(=O)[C@H](CCN)NC(=O)[C@H]([C@@H](C)O)NC1=O` [Compound 16] (X55-[Dab]T[Dap][Dab][Dab][dL]T[Dab][Dab]T; lactam 4-C), the Minimum inhibitory concentration was 2 µg/mL (≈ 1.64 µM) in assay [1]; 4 µg/mL (≈ 3.28 µM) in assay [2]; 0.5 µg/mL (≈ 0.41 µM) in assay [3]; below 0.125 µg/mL in [4]; 0.5 µg/mL (≈ 0.41 µM) in assay [5]; below 0.125 µg/mL in [6]. Further, the Minimum inhibitory concentration in [7] came to 0.25 µg/mL (≈ 0.205 µM); in assay [8], 2 µg/mL (≈ 1.64 µM); in [9], 0.5 µg/mL (≈ 0.41 µM); in assay [10], 0.5 µg/mL (≈ 0.41 µM); in assay [11] it was 1 µg/mL (≈ 0.82 µM); in assay [12] it was 1 µg/mL (≈ 0.82 µM). This molecule registered a Minimum inhibitory concentration in [13] of 8 µg/mL (≈ 6.56 µM).
For the molecule `CC(C)C[C@H]1NC(=O)[C@H](CCN)NC(=O)[C@@H](NC(=O)[C@H](CN)NC(=O)[C@@H](NC(=O)[C@H](CCN)NC(=O)c2ccc(-c3ccc(Cl)cc3)s2)[C@@H](C)O)CCNC(=O)[C@H]([C@@H](C)O)NC(=O)[C@H](CCN)NC(=O)[C@H](CCN)NC(=O)[C@H]([C@@H](C)O)NC1=O` [Compound 17] (X37-[Dab]T[Dap][Dab][Dab][dL]T[Dab][Dab]T; lactam 4-C), the Minimum inhibitory concentration in [1] was 2 µg/mL (≈ 1.63 µM); in assay [2], 1 µg/mL (≈ 0.817 µM); in assay [3], 0.25 µg/mL (≈ 0.204 µM); in assay [4], 1 µg/mL (≈ 0.817 µM); in assay [5], 0.5 µg/mL (≈ 0.409 µM); in assay [6] it was below 0.125 µg/mL. For the same molecule, the Minimum inhibitory concentration amounted to 0.5 µg/mL (≈ 0.409 µM) in assay [7]; 0.5 µg/mL (≈ 0.409 µM) in [8]; 1 µg/mL (≈ 0.817 µM) in [9]; 0.5 µg/mL (≈ 0.409 µM) in assay [10]; 1 µg/mL (≈ 0.817 µM) in [11]; 1 µg/mL (≈ 0.817 µM) in assay [12]. In addition, the Minimum inhibitory concentration in assay [13] stood at 0.25 µg/mL (≈ 0.204 µM).
Take `CC[C@@H]1NC(=O)[C@@H](CC(C)C)NC(=O)[C@H](CCN)NC(=O)[C@@H](NC(=O)[C@H](CN)NC(=O)[C@@H](NC(=O)[C@H](CCN)NC(=O)c2cc(Cl)cc(Cl)n2)[C@@H](C)O)CCNC(=O)[C@H]([C@@H](C)O)NC(=O)[C@H](CCN)NC(=O)[C@H](CCN)NC1=O` [Compound 18] (X2-[Dab]T[Dap][Dab][Dab][dL][Abu][Dab][Dab]T; lactam 4-C): the Minimum inhibitory concentration is 1 µg/mL (≈ 0.861 µM) in assay [1]; 0.25 µg/mL (≈ 0.215 µM) in assay [2]; below 0.125 µg/mL in assay [3]; 0.5 µg/mL (≈ 0.431 µM) in assay [4]; 0.25 µg/mL (≈ 0.215 µM) in [5]; below 0.125 µg/mL in assay [6]. The Minimum inhibitory concentration came to 0.25 µg/mL (≈ 0.215 µM) in assay [7]; 0.25 µg/mL (≈ 0.215 µM) in assay [8]; 0.25 µg/mL (≈ 0.215 µM) in [9]; 0.25 µg/mL (≈ 0.215 µM) in [10]; 0.5 µg/mL (≈ 0.431 µM) in assay [11]; 1 µg/mL (≈ 0.861 µM) in [12]. In assay [13], this molecule returned a Minimum inhibitory concentration of 0.5 µg/mL (≈ 0.431 µM).
Regarding `CC[C@@H]1NC(=O)[C@@H](CC(C)C)NC(=O)[C@H](CCN)NC(=O)[C@@H](NC(=O)[C@H](CN)NC(=O)[C@@H](NC(=O)[C@H](CCN)NC(=O)c2cncc(C(F)(F)F)c2)[C@@H](C)O)CCNC(=O)[C@H]([C@@H](C)O)NC(=O)[C@H](CCN)NC(=O)[C@H](CCN)NC1=O` [Compound 20] (X4-[Dab]T[Dap][Dab][Dab][dL][Abu][Dab][Dab]T; lactam 4-C), the Minimum inhibitory concentration in [1] was 2 µg/mL (≈ 1.72 µM); in [2], 0.5 µg/mL (≈ 0.431 µM); in assay [3], 0.5 µg/mL (≈ 0.431 µM); in assay [4] it was 4 µg/mL (≈ 3.45 µM); in [5], 0.5 µg/mL (≈ 0.431 µM); in assay [6] it was below 0.125 µg/mL. Besides, the Minimum inhibitory concentration in assay [7] worked out at 0.5 µg/mL (≈ 0.431 µM); in assay [8] it was 0.25 µg/mL (≈ 0.215 µM); in [9], 0.5 µg/mL (≈ 0.431 µM); in assay [10], 0.5 µg/mL (≈ 0.431 µM); in assay [11], 0.5 µg/mL (≈ 0.431 µM); in assay [12], 0.5 µg/mL (≈ 0.431 µM). In assay [13], the Minimum inhibitory concentration came to 0.5 µg/mL (≈ 0.431 µM).
On to `CC[C@@H]1NC(=O)[C@@H](CC(C)C)NC(=O)[C@H](CCN)NC(=O)[C@@H](NC(=O)[C@H](CN)NC(=O)[C@@H](NC(=O)[C@H](CCN)NC(=O)c2cc(C(F)(F)F)ccn2)[C@@H](C)O)CCNC(=O)[C@H]([C@@H](C)O)NC(=O)[C@H](CCN)NC(=O)[C@H](CCN)NC1=O` [Compound 21] (X45-[Dab]T[Dap][Dab][Dab][dL][Abu][Dab][Dab]T; lactam 4-C), for which the Minimum inhibitory concentration is 0.25 µg/mL (≈ 0.215 µM) in [1]; 0.25 µg/mL (≈ 0.215 µM) in assay [2]; below 0.125 µg/mL in [3]; 0.25 µg/mL (≈ 0.215 µM) in assay [4]; 1 µg/mL (≈ 0.862 µM) in assay [5]; below 0.125 µg/mL in assay [6]. In addition, the Minimum inhibitory concentration in assay [7] was below 0.125 µg/mL; in assay [8], below 0.125 µg/mL; in assay [9] it was 0.25 µg/mL (≈ 0.215 µM); in assay [10], 0.25 µg/mL (≈ 0.215 µM); in assay [11], 0.25 µg/mL (≈ 0.215 µM); in [12], 0.5 µg/mL (≈ 0.431 µM). The molecule further displayed a Minimum inhibitory concentration in assay [13] of 0.25 µg/mL (≈ 0.215 µM).
`CC[C@@H]1NC(=O)[C@@H](CC(C)C)NC(=O)[C@H](CCN)NC(=O)[C@@H](NC(=O)[C@H](CN)NC(=O)[C@@H](NC(=O)[C@H](CCN)NC(=O)c2ncc(Br)cc2Br)[C@@H](C)O)CCNC(=O)[C@H]([C@@H](C)O)NC(=O)[C@H](CCN)NC(=O)[C@H](CCN)NC1=O` [Compound 22] (X36-[Dab]T[Dap][Dab][Dab][dL][Abu][Dab][Dab]T; lactam 4-C): the Minimum inhibitory concentration was 0.5 µg/mL (≈ 0.4 µM) in assay [1]; 0.5 µg/mL (≈ 0.4 µM) in [2]; below 0.125 µg/mL in [3]; below 0.125 µg/mL in assay [4]; below 0.125 µg/mL in assay [5]; below 0.125 µg/mL in assay [6]. The Minimum inhibitory concentration in assay [7] was below 0.125 µg/mL; in assay [8] it was below 0.125 µg/mL; in assay [9] it was 0.5 µg/mL (≈ 0.4 µM); in assay [10] it was 0.25 µg/mL (≈ 0.2 µM); in assay [11], 0.5 µg/mL (≈ 0.4 µM); in assay [12] it was 0.5 µg/mL (≈ 0.4 µM). For the same molecule, the Minimum inhibitory concentration in assay [13] is 0.5 µg/mL (≈ 0.4 µM).
